The values below come from US20130184273A1, “BICYCLIC PYRIMIDINES” (Bayer Intellectual Property GmbH, priority 2010, published 2013).

The target in assay [1] is T1, His-tagged human recombinant kinase full-length Akt2 (Homo sapiens, UniProt P31751).
T1 construct: His-tagged human recombinant kinase full-length Akt2; His; purchased Invitrogen PV 3975; host or cells: insect cells
Description: Akt2 kinase assay (TR-FRET). In kind it is biochemical. The settings on record: 10 μM ATP, 60 min at 22° C., read-out: Akt2, median IC50. An excerpt: Akt2 inhibitory activity of compounds of the present invention was quantified employing the Akt2 TR-FRET assay as described in the following paragraphs.
His-tagged human recombinant kinase full-length Akt2 expressed in insect cells and activated by PDK1 was purchased form Invitrogen (part number PV 3975). As substrate for the kinase reaction the biotinylated peptide biotin-Ahx-KKLNRTLSFAEPG (C-terminus in amide form) was used which can be purchased e.g. from the company Biosynthan GmbH (Berlin-Buch, Germany).
(§1) For the assay 50 nl of a 100 fold concentrated solution of the test compound in DMSO was pipetted into a black low volume 384well microtiter plate (Greiner Bio-One, Frickenhausen, Germany), 2 μl of a solution of Akt2 in assay buffer [50 mM TRIS/HCl pH 7.5, 5 mM MgCl2, 1 mM dithiothreitol, 0.02% (v/v) Triton X-100 (Sigma)] were added and the mixture was incubated for 15 min at 22° C. to allow pre-binding of the test compounds to the enzyme before the start of the kinase reaction. Then the kinase reaction was started by the addition of 3 μl of a solution of adenosine-tri-phosphate (ATP, 16.7 μM=>final conc. in the 5 μl assay volume is 10 μM) and substrate (1.67 μM=>final conc. in the 5 μl assay volume is 1 μM) in assay buffer and the resulting mixture was incubated for a reaction time of 60 min at 22° C. The concentration of Akt2 in the assay was adjusted depending of the activity of the enzyme lot and was chosen appropriate to have the assay in the linear range, typical enzyme concentrations were in the range of about 0.2 ng/μl (final conc. in the 5 μl assay volume).
The reaction was stopped by the addition of 5 μl of a solution of HTRF detection reagents (200 nM streptavidine-XL665 [Cisbio] and 1.5 nM anti-phosho-Serine antibody [Millipore, cat. #35-001] and 0.75 nM LANCE Eu-W 1024 labeled anti-mouse IgG antibody [Perkin Elmer]) in an aqueous EDTA-solution (100 mM EDTA, 0.1% (w/v) bovine serum albumin in 50 mM HEPES/NaOH pH 7.5).
The resulting mixture was incubated 1 h at 22° C. to allow the binding of the biotinylated phosphorylated peptide to the streptavidine-XL665 and the antibodies.
Subsequently the amount of phosphorylated substrate was evaluated by measurement of the resonance energy transfer from the anti-mouse-IgG-Eu-Chelate to the streptavidine-XL665. Therefore, the fluorescence emissions at 620 nm and 665 nm after excitation at 350 nm was measured in a TR-FRET reader, e.g. a Rubystar (BMG Labtechnologies, Offenburg, Germany) or a Viewlux (Perkin-Elmer). The ratio of the emissions at 665 nm and at […] was taken as the measure for the amount of phosphorylated substrate. The data were normalised (enzyme reaction without inhibitor=0% inhibition, all other assay components but no enzyme=100% inhibition).

Assay [2] has as its target T2, His-tagged human recombinant kinase full-length Akt1 (Homo sapiens, UniProt P31749).
T2 construct: His-tagged human recombinant kinase full-length Akt1; His; purchased Invitrogen PV 3599; host or cells: insect cells
Description: Akt1 kinase assay (TR-FRET). It counts as biochemical. The settings on record: 10 μM ATP, 60 min at 22° C., read-out: Akt1, median IC50.
Text: Akt1 inhibitory activity of compounds of the present invention was quantified employing the Akt1 TR-FRET assay as described in the following paragraphs.
His-tagged human recombinant kinase full-length Akt1 expressed in insect cells was purchased form Invitrogen (part number PV 3599). As substrate for the kinase reaction the biotinylated peptide biotin-Ahx-KKLNRTLSFAEPG (C-terminus in amide form) was used which can be purchased e.g. from the company Biosynthan GmbH (Berlin-Buch, Germany).
as §1, with “Akt1” for “Akt2”, “0.05” for “0.2”
The reaction was stopped by the addition of 5 μl of a solution of HTRF detection reagents (200 nM streptavidine-XL665 [Cisbio] and 1.5 nM anti-phosho-Serine antibody [Millipore, cat. #35-001] and 0.75 nM LANCE Eu-W 1024 labeled anti-mouse IgG antibody [Perkin Elmer]) in an aqueous EDTA-solution (100 mM EDTA, 0.1% (w/v) bovine serum albumin in 50 mM HEPES/NaOH pH 7.5). The resulting mixture was incubated 1 h at 22° C. to allow the binding of the biotinylated phosphorylated peptide to the streptavidine-XL665 and the antibodies. Subsequently the amount of phosphorylated substrate was evaluated by measurement of the resonance energy transfer from the anti-mouse-IgG-Eu-Chelate to the streptavidine-XL665. Therefore, the fluorescence emissions at 620 nm and 665 nm after excitation at 350 nm was measured in a HTRF reader, e.g. a Rubystar (BMG Labtechnologies, Offenburg, Germany) or a Viewlux (Perkin-Elmer). The ratio of the emissions at 665 nm and at […] was taken as the measure for the amount of phosphorylated substrate. The data were normalised (enzyme reaction without inhibitor=0% inhibition, all other assay components but no enzyme=100% inhibition).

T2 sequence (P31749 whole entry): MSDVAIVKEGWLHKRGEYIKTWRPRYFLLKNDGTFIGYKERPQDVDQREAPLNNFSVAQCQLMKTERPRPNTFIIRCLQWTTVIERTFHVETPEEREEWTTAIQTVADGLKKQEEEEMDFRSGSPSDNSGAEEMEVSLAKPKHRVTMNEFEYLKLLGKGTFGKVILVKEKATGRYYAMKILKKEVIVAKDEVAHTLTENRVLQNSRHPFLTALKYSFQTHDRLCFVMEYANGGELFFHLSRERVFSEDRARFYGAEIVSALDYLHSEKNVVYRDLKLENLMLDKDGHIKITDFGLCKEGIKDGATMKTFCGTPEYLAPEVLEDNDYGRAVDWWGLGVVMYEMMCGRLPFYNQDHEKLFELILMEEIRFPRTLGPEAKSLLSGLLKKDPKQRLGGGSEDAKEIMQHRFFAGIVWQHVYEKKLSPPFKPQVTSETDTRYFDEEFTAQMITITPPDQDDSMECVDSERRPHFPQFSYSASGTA
T1 sequence (P31751 whole entry): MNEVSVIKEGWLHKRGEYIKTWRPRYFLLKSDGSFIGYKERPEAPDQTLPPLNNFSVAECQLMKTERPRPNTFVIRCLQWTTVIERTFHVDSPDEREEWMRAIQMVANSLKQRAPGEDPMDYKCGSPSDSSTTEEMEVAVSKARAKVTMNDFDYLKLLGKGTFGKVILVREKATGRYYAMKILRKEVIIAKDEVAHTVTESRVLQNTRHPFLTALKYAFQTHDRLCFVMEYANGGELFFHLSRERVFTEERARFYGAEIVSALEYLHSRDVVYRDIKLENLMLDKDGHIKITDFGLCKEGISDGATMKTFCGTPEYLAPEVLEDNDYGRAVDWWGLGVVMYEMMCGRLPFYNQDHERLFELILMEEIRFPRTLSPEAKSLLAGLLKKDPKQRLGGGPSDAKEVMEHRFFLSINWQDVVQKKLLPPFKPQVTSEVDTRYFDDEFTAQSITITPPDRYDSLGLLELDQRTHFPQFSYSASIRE

For the compound `COCCNc1nc2nc(-c3ccc(C4(N)CCC4)cc3)c(-c3ccccc3)cn2n1` [Example 5-0, {5-[4-(1-Amino-cyclobutyl)-phenyl]-6-phenyl-[1,2,4]triazolo[1,5-a]pyrimidin-2-yl}-(2-methoxy-ethyl)-amine], the IC50 in assay [1] was found to be 877 nM; in assay [2] it was 1830 nM.

For `CCNc1nc2nc(-c3ccc(C4(N)CCC4)cc3)c(-c3ccccc3)cn2n1` [Example 5-1, {5-[4-(1-amino-cyclobutyl)-phenyl]-6-phenyl-[1,2,4]triazolo[1,5-a]pyrimidin-2-yl}-ethyl-amine], the IC50 was determined as 502 nM in assay [1] and 958 nM in assay [2].

With `COC[C@H](C)Nc1c(-c2ccccc2)c(-c2ccc(C3(N)CCC3)cc2)nc2nccn12` [Example 2-4, {7-[4-(1-Amino-cyclobutyl)-phenyl]-6-phenyl-imidazo[1,2-a]pyrimidin-5-yl}-((S)-2-methoxy-1-methyl-ethyl)-amine], the results for the IC50 in assay [1] and in assay [2] were 1270 nM and 10600 nM, respectively.

Regarding `Cc1nc2nc(-c3ccc(C4(N)CC4)cc3)c(-c3ccccc3)cn2n1` [Example 1-2, 1-[4-(2-methyl-6-phenyl-[1,2,4]triazolo[1,5-a]pyrimidin-5-yl)-phenyl]-cyclopropylamine], the IC50 in assay [1] was determined as 2220 nM; in assay [2], 3010 nM.

For the compound `NC1(c2ccc(-c3nc4nc(-c5ccccn5)nn4c(N4CCOCC4)c3-c3ccccc3)cc2)CCC1` [Example 3-2, 1-[4-(7-Morpholine-4-yl-6-phenyl-2-pyridine-2-yl-[1,2,4]triazolo[1,5-a]pyrimidin-5-yl)-phenyl]-cyclobutylamine], the IC50 is 6640 nM in assay [1] and at least 20000 nM in assay [2].

`Cc1nc2nc(-c3ccc(C4(N)CCC4)cc3)c(-c3ccccc3)c(NCCc3ccc(F)cc3)n2n1` [Example 3-5, {5-[4-(1-Amino-cyclobutyl)-phenyl]-2-methyl-6-phenyl-[1,2,4]triazolo[1,5-a]pyrimidin-7-yl}-[2-(4-fluoro-phenyl)-ethyl]-amine]: the results for the IC50 in assay [1] and in assay [2] were 3560 nM and 18800 nM, respectively.

On to `CCOC(=O)C1(Nc2c(-c3ccccc3)c(-c3ccc(C4(N)CCC4)cc3)nc3nc(C)nn23)CCC1` [Example 3-3, 1-{5-[4-(1-Aminocyclobutyl)-phenyl]-2-methyl-6-phenyl-[1,2,4]triazolo[1,5-a]pyrimidin-7-ylamino}-cyclobutanecarboxylic acid ethyl ester], for which the IC50 in assay [1] was 1120 nM; in assay [2], at least 20000 nM.

As for `NC1(c2ccc(-c3nc4nc(NCc5ccncc5)nn4cc3-c3ccccc3)cc2)CCC1` [Example 5-6, {5-[4-(1-amino-cyclobutyl)-phenyl]-6-phenyl-[1,2,4]triazolo[1,5-a]pyrimidin-2-yl}-pyridin-4-ylmethyl-amine], the IC50 in assay [1] turned out to be 2550 nM; in assay [2], 5650 nM.

With `NC1(c2ccc(-c3nc4nccn4cc3-c3ccccc3)cc2)CCC1` [Example 2-0, 1-[4-(6-Phenyl-imidazo[1,2-a]pyrimidin-7-yl)-phenyl]-cyclobutylamine], the IC50 in assay [1] is 1640 nM; in assay [2] it was 2220 nM.

In the case of `CCNc1c(-c2ccccc2)c(-c2ccc(C3(N)CCC3)cc2)nc2nc(C)nn12` [Example 5-11, {5-[4-(1-amino-cyclobutyl)-phenyl]-2-methyl-6-phenyl-[1,2,4]triazolo[1,5-a]pyrimidin-7-yl}-ethyl-amine], the IC50 in assay [1] was determined as 1120 nM; in assay [2], 1730 nM.

With `NC1(c2ccc(-c3nc4nccn4c(NC4CC4)c3-c3ccccc3)cc2)CCC1` [Example 2-2, {7-[4-(1-Amino-cyclobutyl)-phenyl]-6-phenyl-imidazo[1,2-a]pyrimidin-5-yl)-cyclopropylamine], the IC50 in assay [1] amounted to 1580 nM; in assay [2], 2050 nM.

As for `Cc1nc2nc(-c3ccc(C4(N)CCC4)cc3)c(-c3ccccc3)c(NC3CC3)n2n1` [Example 5-12, {5-[4-(1-amino-cyclobutyl)-phenyl]-2-methyl-6-phenyl-[1,2,4]triazolo[1,5-a]pyrimidin-7-yl}-cyclopropyl-amine], the IC50 in assay [1] was 904 nM; in assay [2], 1850 nM.
